Patent US20020061862A1, “Inducible nitric oxide synthase for treatment of disease” (University of Pittsburgh of the Commonwealth System of …, priority 1992, published 2002)

Key:
3T3-iNOS cells = assay: NO2- production (iNOS activity) in transfected 3T3-iNOS cells; format: cell-based, murine; details: MTX 12.5 μM
Description: Cells were passaged to 6 well plates at a density of 1×10^5 cells/well 24 h prior to transfection. For 3T3 cells, each well of cells was transfected with a mixture of 1 μg plasmid DNA and 6 μg of Lipofectamine (GIBCO) in OPTIMEM-I media for 5 h. For RSMC, a ratio of 1 μg DNA to 7 μl of Lipofectamine was used. Following the incubation period, the transfection solution was removed and normal growth medium replaced. The transfection efficiency was estimated by X-gal staining of pIEP-lacZ transfected cells. All studies were performed at 24-72 h post-transfection.
Twenty four hours following transfection, the cell medium was then replaced with fresh medium and the cells were cultured for an additional 24 h at which time the supernatants were assayed for accumulated NO2 using the Griess reaction (Geller, et al., 1993, Proc. Natl. Acad. Sci. USA: 90:522-526). Measurements were also performed in the presence of L-NMA (1 mM), BH4 (100 μM), and methotrexate (MTX 12.5 μM). The cells were lysed with 0.1 M NaOH and the protein concentration was quantified with the BCA protein assay. To assess the requirement for compression of GTPCH and iNOS in the same cell, 3T3 cells were transfected with either pIEPlacZ or pCIS-GTPCH. […] Cells were allowed to attach overnight and NO2− levels were measured 24 h later.

[1] = test system: ecNOS mRNA and protein in SPAEC; assay: Northern and Western blot for ecNOS expression in SPAEC; format: cell-based, sheep; details: 1 mM, 6 h, versus SPAEC treated with the parent compound
Description: Aliquots (20 μg) of RNA were electrophoresed on a 0.9% agarose gel and blotted to GeneScreen (DuPontNEN; Boston, Mass.). After prehybridization, the membranes were hybridized to a DNA probe as described (Geller, et al., 1993, Proc. Natl. Acad. Sci. USA 90:522-526). A 2.3 kb human iNOS cDNA fragment served as the iNOS probe while a 4.1 kb human endothelial cNOS cDNA fragment served as the ecNOS probe. 18S rRNA served as a control for relative RNA loading.
The cells were lysed by three freeze-thaw cycles, and the cytosolic fraction was isolated by centrifugation at 100,000×g for 60 min at 4° C. as previously described (Luss, et al., 1994, Biochem. Biophys. Res. Comm. 204-2: 635-640). Protein concentrations were measured with the BCA protein assay (Pierce; Rockford, Ill.). For whole cell preparations, a similar procedure was performed without the centrifugation step.
Cell cytosols (100μg) were electrophoresed through an 8% SDS-polyacrylamide gel and transferred to nitrocellulose membranes (Schleicher Schuell; Keene, N.H.) as described (Laemmli, 1970, Nature 227: 680-685). […]

[2] = test system: sheep pulmonary artery endothelial cells (SPAEC); format: cell-based; details: L-NMA 0.5 mM, BH4 100 μM

CN(Cc1cnc2nc(N)nc(N)c2n1)c1ccc(C(=O)N[C@@H](CCC(=O)O)C(=O)O)cc1 [MTX, methotrexate]
reduction of iNOS activity recovered by BH4 supplementation (3T3-iNOS cells; 3T3-iNOS, FIG. 23): over 5 fold | reduction of iNOS activity (3T3-iNOS cells; pCIS-GTPCH transfected 3T3iNOS cells): 50%

CC(=O)N[C@H](C(=O)O)C(C)(C)SN=O [SNAP, S-nitroso-N-acetyl-penicillamine]
increase in ecNOS mRNA [1]: 1.5 fold

CNC(=N)NCCC[C@H](N)C(=O)O [L-NMA, N^G-monomethyl-L-arginine]
effect of agent added to culture medium on nitrogen oxide synthesis / NO2^− production of SPAEC/DFG-iNOS-Neo [2]: inhibited
